# Experimental data as given in patent US20060009433A1, “Neuroprotective spirostenol pharmaceutical compositions” (priority 2003, published 2006).
# Entries after “also recorded” stand apart in the source; their conditions may differ.
# What was measured:
# [1] = test system: neural stem cells in the sub-ventricular zone (SVZ) of the rat brain; experiment: In vivo i.c.v. infusion, neural stem cells of the SVZ (BrdU, DCX immunohistochemistry)
# Protocol: Male Long-Evans rats weighing 300-325 g (3-4 months old) were housed following a natural day-night cycle with food and water ad libitum. Prior to surgery, rats were anesthetized with equithesin (3 ml/kg, i.p.) and then placed on a stereotaxic frame. Using an electrode micromanipulator, the outlet of an osmotic micropump was implanted into the left cerebral ventricle following the coordinates D=3.4 mm, L=1.4 mm and AP=0.92 mm caudal to bregma. The tank of the osmotic pump was implanted in a subcutaneous pocket in the midscapular area of the back of the rat. After surgery, rats were placed on a heating blanket for recovery. During the whole procedure, the body temperature was monitored and kept stable at 37° C. SP-224 at 375 μM solubilized in polypropylene glycol/glycerol/distilled water (50/25/25) was perfused by i.c.v. route at 5 μl per hour for 2 weeks. Rats were sacrificed 3 weeks after the end of the brain infusion by intracardiac perfusion, first with a washing solution (NaCl 8 g/l, dextrose 4 g/l, sucrose 8 g/l, calcium chloride 0.23 g/l, sodium cacodylate anhydrous 0.25 g/l, in deionized water) and then with fixative cacodylate buffer (sucrose 40 g/l, paraformaldehyde 40 g/l, sodium cacodylate anhydrous 10.72 g/l, in deionized water). Brains were stored in fixative cacodylate buffer for an additional week before being embedded in paraffin. To study the neural stem cells proliferation rats were daily injected with a BrdU solution at 100 mg/kg. The first injection took place the day following the surgery and the last injection was performed the day previous to the euthanasia.
# Brains were embedded in a paraffin block […] and cut into 20-μm thick slices.
# This experiment was conducted to validate the results obtained in vitro and to assess the ability of the SP-224 to induce a neuronal differentiation of the neural stem cells present in the sub-ventricular zone (SVZ) of the rat brain. The SP-224 was administered in a solution at 375 μM by intra-cerebroventricular route for 2 weeks, corresponding to a total quantity of […] of SP-224 per rat. […]
# [2] = test system: PC12 rat pheochromocytoma cells; experiment: Neurites-like sprouting in PC12 cells; assay type: cell-based; details: 90 μM, then wash-out
# Protocol: (§1) Mouse embryonic teratocarcinoma P19 cells were cultured at 37° C. in […] in Alpha Minimum Essential medium with ribonucleosides and deoxyribonucleosides containing bovine calf serum (7.5%) and fetal bovine serum (2.5%) on 13 mm diameter glass cover-slip. PC12 cells (rat pheochromocytoma neurons) were cultured at 37° C. and 5% CO2 in RPMI 1640 medium devoid of glutamine and supplemented with 10% fetal bovine serum and 5% horse serum on 13 mm diameter glass cover-slip. When cells reached 70% confluence, the medium was replaced fresh medium containing 90 μM SP-224. P19 and PC12 cells were then incubated for 2 days before SP224 was washed out and replaced by standard medium. The culture medium was changed every 2 days for 5 days or every 2 days for 30 days before cells were fixed for immunocytochemistry. The NT2 cells were treated for 5 days and washed-out for 10 days.
# (§2) The above-referenced cell lines were used because they have been extensively used as a model of neuronal differentiation (Houldsworth et al., 2002; Chou et al., 2003; Das et al., 2004). To induce the sprouting, cells were plated in 6-well plates and treated for 2 days (P19) or 5 days (PC12 and NT2) with 90 μM SP-224 before being washed with fresh medium and cultured for 5 (P19) or 10 (PC12 and NT2) more days. […] Meantime, we observed a growth arrest of the treated-cells. […]
# P19 cells = experiment: Neuronal and glial markers in differentiated P19 cells (immunocytochemistry); assay type: cell-based, mouse
# Protocol: as §1
# P19 cells were fixed with methanol at −20° C. for 15 minutes before being permeabilized for 30 minutes at room temperature with 1×PBS pH=7.4 containing 0.1% Triton 100×. Cell were incubated for 24 hours at 4° C. with antibodies raised against GAP43 (1/1000), DCX (1/3000), βIII Tubulin (1/500), synaptophysin (1/200), MAP2 (1/500), ChAT (1/2000), GFAP (1/1000) or CNPase (1/250). […] Cells nucleus was counterstained using DAPI or ethidium bromide.
# The ability of SP-224 to induce the neuronal differentiation of the P19 cells was assessed as follows. P19 cells were treated for 2 days followed by a 5 days wash out period (FIG. 26). The neuronal markers expression was also studied after 28 days (FIG. 27) in order to in order to verify whether the expression observed at 5 days was temporary or permanent. No neuronal marker was observed on the control except for the synaptophysin for which the staining was, however, very weak (FIG. 26C). […] After 28 days of wash out the neuronal differentiation is even more important.
# [3] = test system: Mouse embryonic teratocarcinoma P19 cells; experiment: Neurites-like sprouting in P19 cells; assay type: cell-based; details: 90 μM, 2 days, then 5 days wash-out
# Protocol: as §1, §2
# NT2 human neuronal cells = experiment: Neurites-like sprouting in NT2 cells; assay type: cell-based; details: 90 μM, 5 days, then 10 days wash-out
# Protocol: as §1, §2
# [4] = 375 μM i.c.v., 5 μl per hour for 2 weeks, sacrifice 3 weeks later
# [5] = 2 days treatment, 28-30 days wash out
smiles,measurement,setting,value
"CC1CCC2(NC1)OC1CC3C4CC=C5CC(O)CCC5(C)C4CCC3(C)C1C2C [SP224, (20α)-25ζ-methyl-(22R,26)-azacyclofurost-5-en-3ζ-ol]",toxic effect on the brain tissue,[1]; 375 μM i.c.v. for 2 weeks,without any apparent toxic effect on the brain tissue
same,"BrdU immunostaining, neural stem cell self-renewal/proliferation in the SVZ",[1]; [4],able to induce a self-renewal of the neural stem cells in the SVZ; also recorded: dramatic increase of the BrdU
same,expression of early neuronal marker DCX in the SVZ cells,[1]; [4],induced the expression of the early neuronal marker DCX
same,sprouting of PC12 cells,[2],significant sprouting
same,astrocyte marker GFAP / differentiation into astrocytes,"P19 cells; 90 μM 2 days, 5 days SP-224 free medium",no positive GFAP signal was detected; also recorded: did not trigger the differentiation of the P19 cells into astrocytes
same,expression of ChAT,"P19 cells; 90 μM 2 days, 5 days wash out",strong expression
same,expression of MAP2,"P19 cells; 90 μM 2 days, 5 days wash out",strong expression
same,expression of migrating neuroblasts marker DCX,"P19 cells; 90 μM 2 days, 5 days wash out",strongly expressed
same,expression of synaptophysin,"P19 cells; 90 μM 2 days, 5 days wash out",strong expression
same,expression of βIII tubulin,"P19 cells; 90 μM 2 days, 5 days wash out",strong expression
same,network of axons and dendrites (βIII tubulin staining),P19 cells; [5],dramatically extended
same,synaptophysin labeling,P19 cells; [5],established synaptic connections
same,sprouting of P19 cells,[3],significant sprouting
same,sprouting of NT2 cells,NT2 human neuronal cells,significant sprouting
